{"source": "patent US20080305186A1", "about": "“Method and Composition for the Treatment of Cardiac Hypertrophy” (BOARD OF REGENTS, THE UNIVERSITY OF TEXAS SYSTEM, priority 2007, published 2008)", "system": "cardiac gene expression", "experiment": "Microarray analysis of cardiac gene expression (GeneChip Mouse Genome 430 2.0)", "format": "in vivo, mice", "settings": "for FC Transglutaminase 2, C polypeptide (Tgm2): CH vs normal FC 2.0", "protocol": "Microarray Sample Preparation and Analysis. Animal hearts were rapidly removed, and the atria and right ventricles were cut and immediately plunged into TRIzol Reagent (Life Technologies). Total RNA was isolated following the manufacturer's instructions, purified by phenol-chloroform extraction and then ethanol precipitation, and 20 μg further processed for microarray analysis. Briefly, cDNA synthesis, in vitro transcription, and labeling and fragmentation to produce the oligonucleotide probes were performed as instructed by the GeneChip manufacturer (Affymetrix). The probes were first hybridized to a test array (Affymetrix) and then to the GeneChip Mouse Genome 430 2.0 Array, using the GeneChip Hybridization Oven 640. The chips were washed in a GeneChip Fluidics Station 450 (Affymetrix), and the results were visualized with a GeneChip G7 scanner (Affymetrix). RMA normalization, pairwise comparisons, Student's t test and Benjamini and Hochberg correction were subsequently performed using GeneSifter (VizX Labs, Seattle, Wash.) and Spotfire DecisionSite 8.3 (Spotfire, Inc., Somerville, Mass.).\nEffects on Gene Expression Profile. […] One mouse heart was used for each array, and was performed in triplicate, generating a total of 12 arrays. GeneSifter was used to perform RMA normalization, pairwise comparisons of averaged signal intensity values, and Student's t-test with Benjamini and Hochberg correction, and Spotfire was used to perform pairwise comparisons. […] Additionally, genes that were altered between any two N or cardiac hypertrophy samples were removed, as these alterations most likely represented normal variations between mice.", "data": [{"compound": "C[C@H]1c2cccc(O)c2C(=O)C2=C(O)[C@]3(O)C(=O)C(C(N)=O)=C(O)[C@@H](N(C)C)[C@@H]3[C@@H](O)[C@@H]21", "note": "[doxycycline]", "values": [{"measurement": "FC IBR domain containing 2 (Ibrdc2)", "setting": "GenBank AV274826, vs mice given only isoproterenol", "value": "−2.1"}, {"measurement": "FC Xanthine dehydrogenase (Xdh)", "setting": "GenBank AV286265, heart, drug + isoproterenol vs isoproterenol-only mice, CH vs normal FC 3.9", "value": "−3.0", "unit": "fold"}, {"measurement": "FC UDP-N-acetyl-alpha-D-galactosamine:polypeptide N-acetylgalactosaminyltransferase-like 2 (Galntl2)", "setting": "GenBank AV290688, heart, drug + isoproterenol vs isoproterenol-only mice, CH vs normal FC 3.3", "value": "−2.8", "unit": "fold"}, {"measurement": "FC Ras association (RalGDS/AF-6) domain family 4 (Neuropeptide signaling)", "setting": "GenBank AV291679, vs mice given only isoproterenol", "value": "−2.2"}, {"measurement": "FC Syntaxin 3 (Stx3)", "setting": "GenBank AV296217, vs mice given only isoproterenol", "value": "−1.6"}, {"measurement": "FC EST", "setting": "GenBank AV318727, vs mice given only isoproterenol", "value": 2.6}, {"measurement": "FC F-box-WD40 repeat protein 6 (Fbxw6)", "setting": "GenBank AV338062, vs mice given only isoproterenol", "value": 1.9}, {"measurement": "FC EST", "setting": "GenBank AW123929, vs mice given only isoproterenol", "value": "−1.8"}, {"measurement": "FC EST", "setting": "GenBank AW208574, vs mice given only isoproterenol", "value": "−1.9"}, {"measurement": "FC Myristoylated alanine rich protein kinase C substrate (Marcks)", "setting": "GenBank AW546141, vs mice given only isoproterenol", "value": 1.7}, {"measurement": "FC Transmembrane protein 23 (Tmem23)", "setting": "GenBank AW985925, heart, drug + isoproterenol vs isoproterenol-only mice, CH vs normal FC 2.8", "value": "−2.1", "unit": "fold"}, {"measurement": "FC Nuclear factor, interleukin 3, regulated (Nfil3)", "setting": "GenBank AY061760, vs mice given only isoproterenol", "value": "−2.5"}, {"measurement": "FC RasGEF domain family, member 1B (Rasgef1b)", "setting": "GenBank BB003229, vs mice given only isoproterenol", "value": "−2.4"}, {"measurement": "FC Transglutaminase 2, C polypeptide (Tgm2)", "setting": "GenBank BB041811, heart, drug + isoproterenol vs isoproterenol-only mice", "value": "−1.7", "unit": "fold"}, {"measurement": "FC EST", "setting": "GenBank BB069531, vs mice given only isoproterenol", "value": 2.1}, {"measurement": "FC G protein-coupled receptor 116 (Gprl16)", "setting": "GenBank BB083808, vs mice given only isoproterenol", "value": "−2.0"}, {"measurement": "FC EST", "setting": "GenBank BB096843, vs mice given only isoproterenol", "value": "−1.8"}, {"measurement": "FC RAN binding protein 9 (Ranbp9)", "setting": "GenBank BB106402, vs mice given only isoproterenol", "value": "−2.6"}, {"measurement": "FC EST", "setting": "GenBank BB109391, vs mice given only isoproterenol", "value": "−1.8"}, {"measurement": "FC Tumorsuppressor St7-like (St7l)", "setting": "GenBank BB122084, heart, drug + isoproterenol vs isoproterenol-only mice, CH vs normal FC 2.3", "value": "−2.1", "unit": "fold"}, {"measurement": "FC Kyphoscoliosis peptidase (Ky)", "setting": "GenBank BB126077, vs mice given only isoproterenol", "value": 1.8}, {"measurement": "FC EST", "setting": "GenBank BB127176, vs mice given only isoproterenol", "value": "−1.7"}, {"measurement": "FC Endothelial differentiation sphingolipid G-protein-coupled receptor 1 (Edg1)", "setting": "GenBank BB133079, vs mice given only isoproterenol", "value": "−2.4"}, {"measurement": "FC Interferon induced transmembrane protein 6 (Ifitm6)", "setting": "GenBank BB193024, vs mice given only isoproterenol", "value": "−3.3"}, {"measurement": "FC RAS, dexamethasone-induced 1 (Rasd1)", "setting": "GenBank BB217136, vs mice given only isoproterenol", "value": "−3.3"}, {"measurement": "FC EST", "setting": "GenBank BB219003, vs mice given only isoproterenol", "value": "−2.1"}, {"measurement": "FC Inner membrane protein, mitochondrial (Immt)", "setting": "GenBank BB222675, vs mice given only isoproterenol", "value": 4.9}, {"measurement": "FC EST", "setting": "GenBank BB236747, vs mice given only isoproterenol", "value": "−1.7"}, {"measurement": "FC Procollagen-proline, 2-oxoglutarate 4-dioxygenase (proline 4-hydroxylase), alpha 1 polypeptide (P4ha1)", "setting": "GenBank BB253720, vs mice given only isoproterenol", "value": 1.9}, {"measurement": "FC MAD homolog 1 (Smad1)", "setting": "GenBank BB257769, vs mice given only isoproterenol", "value": "−1.9"}, {"measurement": "FC EST", "setting": "GenBank BB312992, vs mice given only isoproterenol", "value": "−2.1"}, {"measurement": "FC Zi finger and BTB domain containing 16 (Zbtb16)", "setting": "GenBank BB326368, heart, drug + isoproterenol vs isoproterenol-only mice, CH vs normal FC 5.1", "value": "−1.8", "unit": "fold"}, {"measurement": "FC Kelch-like 24 (Khl24)", "setting": "GenBank BB328076, vs mice given only isoproterenol", "value": "−2.2"}, {"measurement": "FC Tissue inhibitor of metalloproteinase 4 (Timp4)", "setting": "GenBank BB328405, heart, drug + isoproterenol vs isoproterenol-only mice, CH vs normal FC 5.6", "value": "−2.8", "unit": "fold"}, {"measurement": "FC Leucine-rich repeat-containing 8c (Lrrc8c)", "setting": "GenBank BB333759, vs mice given only isoproterenol", "value": "−1.7"}, {"measurement": "FC EST", "setting": "GenBank BB335101, vs mice given only isoproterenol", "value": 2.2}, {"measurement": "FC Insulin receptor substrate 1 (Irs1)", "setting": "GenBank BB345784, vs mice given only isoproterenol", "value": "−1.7"}, {"measurement": "FC Tribbles homolog 2 (Trib2)", "setting": "GenBank BB354684, heart, drug + isoproterenol vs isoproterenol-only mice, CH vs normal FC −1.9", "value": 1.6, "unit": "fold"}, {"measurement": "FC EST", "setting": "GenBank BB374879, vs mice given only isoproterenol", "value": 2.7}, {"measurement": "FC Transcription factor Dp 2 (Tfdp2)", "setting": "GenBank BB405795, heart, drug + isoproterenol vs isoproterenol-only mice, CH vs normal FC 2.8", "value": "−2.2", "unit": "fold"}, {"measurement": "FC Inositol 1,4,5-trisphosphate 3-kinase B (Itpkb)", "setting": "GenBank BB434111, vs mice given only isoproterenol", "value": 2.5}, {"measurement": "FC EST", "setting": "GenBank BB476794, vs mice given only isoproterenol", "value": 1.9}, {"measurement": "FC Histone 1, H1e (Hist1h2be)", "setting": "GenBank BB490701, vs mice given only isoproterenol", "value": "−1.7"}, {"measurement": "FC RNA, U22 small nucleolar", "setting": "GenBank BB493265, vs mice given only isoproterenol", "value": "−1.8"}, {"measurement": "FC F-box and leucine-rich repeat protein 13 (Fbxl13)", "setting": "GenBank BB503935, vs mice given only isoproterenol", "value": 1.9}, {"measurement": "FC OTU domain, ubiquitin aldehyde binding 1 (Otub1)", "setting": "GenBank BB534069, vs mice given only isoproterenol", "value": 2.0}, {"measurement": "FC EST", "setting": "GenBank BB535847, vs mice given only isoproterenol", "value": "−2.0"}, {"measurement": "FC Transglutaminase 2, C polypeptide (Tgm2)", "setting": "GenBank BB550124, heart, drug + isoproterenol vs isoproterenol-only mice", "value": "−1.7", "unit": "fold"}, {"measurement": "FC Von Willebrand factor homolog (Vwf)", "setting": "GenBank BB667216, heart, drug + isoproterenol vs isoproterenol-only mice, CH vs normal FC 2.3", "value": "−1.7", "unit": "fold"}, {"measurement": "FC Dehydrogenase E1 and transketolase domain containing 1 (Dhtkd1)", "setting": "GenBank BB667395, vs mice given only isoproterenol", "value": "−2.1"}, {"measurement": "FC Fibroblast growth factor receptor 3 (Fgfr3)", "setting": "GenBank BB732903, vs mice given only isoproterenol", "value": "−2.1"}, {"measurement": "FC Period homolog 3 (Per3)", "setting": "GenBank BB757992, vs mice given only isoproterenol", "value": 2.3}, {"measurement": "FC Serine palmitoyltransferase, long chain base subunit 2 (Sptlc2)", "setting": "GenBank BB794710, vs mice given only isoproterenol", "value": "−2.1"}, {"measurement": "FC Nucleoplasmin 3 (Npm3)", "setting": "GenBank BB811478, vs mice given only isoproterenol", "value": 2.1}, {"measurement": "FC Heterogeneous nuclear ribonucleoprotein R (Hnrpr)", "setting": "GenBank BB822465, vs mice given only isoproterenol", "value": 1.8}, {"measurement": "FC Integrator complex subunit 3 (Ints3)", "setting": "GenBank BC003209, vs mice given only isoproterenol", "value": "−2.2"}, {"measurement": "FC Solute carrier family 39 (iron-regulated transporter), member 1 (Slc40a1)", "setting": "GenBank BC003438, vs mice given only isoproterenol", "value": "−2.1"}, {"measurement": "FC Transforming, acidic coiled-coil containing protein 2 (Tacc2)", "setting": "GenBank BC004057, heart, drug + isoproterenol vs isoproterenol-only mice, CH vs normal FC 2.8", "value": "−2.1", "unit": "fold"}, {"measurement": "FC Lutheran blood group (Auberger b antigen iluded) (Bcam)", "setting": "GenBank BC004826, vs mice given only isoproterenol", "value": 1.6}, {"measurement": "FC Tubulin, beta 2c (Tubb2c)", "setting": "GenBank BC005547, heart, drug + isoproterenol vs isoproterenol-only mice, CH vs normal FC −1.7", "value": 2.5, "unit": "fold"}]}]}
